pIC50: −log10 of the molar value.
Experiments:
[1] = Cytotoxicity against HUVEC after 24 hrs by MTT assay; assay type: cell-based; conditions: human, HUVEC cells
HUVEC [2] = assay: Antiproliferative against HUVEC after 48 hrs by MTT assay; conditions: Homo sapiens
HUVEC [3] = assay: Induction of apoptosis in HUVEC after 24 hrs by annexin V-FITC/propidium iodide staining-based FACS flow cytometric analysis; assay type: functional, cell-based; conditions: Homo sapiens
HUVEC [4] = assay: Induction of apoptosis in HUVEC assessed as viable cells at 4 uM after 24 hrs by annexin V-FITC/propidium iodide staining-based FACS flow cytometric analysis (reference value: 96.26%); assay type: functional; conditions: Homo sapiens, read-out: Activity
HUVEC [5] = assay: Induction of apoptosis in HUVEC assessed as viable cells at 2 uM after 24 hrs by annexin V-FITC/propidium iodide staining-based FACS flow cytometric analysis (reference value: 96.26%); assay type: functional; conditions: Homo sapiens, read-out: Activity
HUVEC [6] = assay: Induction of apoptosis in HUVEC assessed as viable cells at 1 uM after 24 hrs by annexin V-FITC/propidium iodide staining-based FACS flow cytometric analysis (reference value: 96.26%); assay type: functional; conditions: Homo sapiens, read-out: Activity
HUVEC [7] = assay: Induction of apoptosis in HUVEC assessed as viable cells at 0.5 uM after 24 hrs by annexin V-FITC/propidium iodide staining-based FACS flow cytometric analysis (reference value: 96.26%); assay type: functional; conditions: Homo sapiens, read-out: Activity
HUVEC [8] = assay: Induction of apoptosis in HUVEC assessed as early apoptotic cells at 4 uM after 24 hrs by annexin V-FITC/propidium iodide staining-based FACS flow cytometric analysis (reference value: 0.02%); assay type: functional, Homo sapiens
HUVEC [9] = assay: Induction of apoptosis in HUVEC assessed as early apoptotic cells at 2 uM after 24 hrs by annexin V-FITC/propidium iodide staining-based FACS flow cytometric analysis (reference value: 0.02%); assay type: functional, Homo sapiens
HUVEC [10] = assay: Induction of apoptosis in HUVEC assessed as early apoptotic cells at 1 uM after 24 hrs by annexin V-FITC/propidium iodide staining-based FACS flow cytometric analysis (reference value: 0.02%); assay type: functional, Homo sapiens
HUVEC [11] = assay: Induction of apoptosis in HUVEC assessed as early apoptotic cells at 0.5 uM after 24 hrs by annexin V-FITC/propidium iodide staining-based FACS flow cytometric analysis (reference value: 0.02%); assay type: functional, Homo sapiens
HUVEC [12] = assay: Induction of apoptosis in HUVEC assessed as late apoptotic cells at 4 uM after 24 hrs by annexin V-FITC/propidium iodide staining-based FACS flow cytometric analysis (reference value: 0.09%); assay type: functional, Homo sapiens
HUVEC [13] = assay: Induction of apoptosis in HUVEC assessed as late apoptotic cells at 2 uM after 24 hrs by annexin V-FITC/propidium iodide staining-based FACS flow cytometric analysis (reference value: 0.09%); assay type: functional, Homo sapiens
HUVEC [14] = assay: Induction of apoptosis in HUVEC assessed as late apoptotic cells at 1 uM after 24 hrs by annexin V-FITC/propidium iodide staining-based FACS flow cytometric analysis (reference value: 0.09%); assay type: functional, Homo sapiens
HUVEC [15] = assay: Induction of apoptosis in HUVEC assessed as late apoptotic cells at 0.5 uM after 24 hrs by annexin V-FITC/propidium iodide staining-based FACS flow cytometric analysis (reference value: 0.09%); assay type: functional, Homo sapiens
HUVEC [16] = assay: Induction of apoptosis in HUVEC assessed as dead cells at 4 uM after 24 hrs by annexin V-FITC/propidium iodide staining-based FACS flow cytometric analysis (reference value: 2.82%); assay type: functional, Homo sapiens
HUVEC [17] = assay: Induction of apoptosis in HUVEC assessed as dead cells at 1 uM after 24 hrs by annexin V-FITC/propidium iodide staining-based FACS flow cytometric analysis (reference value: 2.82%); assay type: functional, Homo sapiens
HUVEC [18] = assay: Induction of apoptosis in HUVEC assessed as dead cells at 0.5 uM after 24 hrs by annexin V-FITC/propidium iodide staining-based FACS flow cytometric analysis (reference value: 2.82%); assay type: functional, Homo sapiens
HUVEC [19] = assay: Induction of apoptosis in HUVEC assessed as dead cells at 2 uM after 24 hrs by annexin V-FITC/propidium iodide staining-based FACS flow cytometric analysis (reference value: 2.82%); assay type: functional, Homo sapiens
[20] = target: Methionine aminopeptidase 2 (Homo sapiens, UniProt P50579); assay: Inhibition of MetAP2 (unknown origin) after 4 hrs
Methionine aminopeptidase 2, sequence (P50579 whole entry): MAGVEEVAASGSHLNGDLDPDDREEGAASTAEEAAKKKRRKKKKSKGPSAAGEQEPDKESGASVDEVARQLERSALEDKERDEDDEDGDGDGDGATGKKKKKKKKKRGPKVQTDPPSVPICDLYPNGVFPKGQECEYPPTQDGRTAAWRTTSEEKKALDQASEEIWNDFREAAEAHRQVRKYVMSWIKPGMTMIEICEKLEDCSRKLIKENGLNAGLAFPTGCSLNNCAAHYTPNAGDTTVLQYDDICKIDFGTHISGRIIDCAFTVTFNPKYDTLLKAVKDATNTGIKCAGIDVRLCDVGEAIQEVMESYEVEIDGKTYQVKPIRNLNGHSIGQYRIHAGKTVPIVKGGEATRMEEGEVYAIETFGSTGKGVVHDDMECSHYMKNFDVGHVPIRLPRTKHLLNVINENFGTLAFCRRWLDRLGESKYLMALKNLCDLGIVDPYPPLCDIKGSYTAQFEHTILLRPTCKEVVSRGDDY

SMILES | CC50 at 24 h [1] [µM] | pIC50 (HUVEC [2]) | also measured
Brc1ccccc1/C=C/c1nnc(-c2ccc3c(c2)OCCO3)o1 | 287 | 5.05 | 
Fc1ccc(/C=C/c2nnc(-c3ccc4c(c3)OCCO4)o2)cc1 | 325 | 5.30 | 
NNC(=O)c1ccc2c(c1)OCCO2 | 200 | < 4.30 | 
O=[N+]([O-])c1cccc(/C=C/c2nnc(-c3ccc4c(c3)OCCO4)o2)c1 | 309 | 4.52 | 
O=[N+]([O-])c1ccccc1/C=C/c1nnc(-c2ccc3c(c2)OCCO3)o1 | 323 | 4.60 | 
Brc1ccc(/C=C/c2nnc(-c3ccc4c(c3)OCCO4)o2)cc1 | 491 | 4.65 | 
Clc1ccccc1/C=C/c1nnc(-c2ccc3c(c2)OCCO3)o1 | 368 | 5.11 | 
Cc1ccccc1/C=C/c1nnc(-c2ccc3c(c2)OCCO3)o1 | 356 | 4.39 | 
Fc1cccc(/C=C/c2nnc(-c3ccc4c(c3)OCCO4)o2)c1 | 295 | 5.45 | 
Brc1cccc(/C=C/c2nnc(-c3ccc4c(c3)OCCO4)o2)c1 | 322 | 4.87 | 
Fc1ccccc1/C=C/c1nnc(-c2ccc3c(c2)OCCO3)o1 | 402 | 5.94 | Activity (HUVEC [3]): Dose-dependent effect; viability at 4 µM (HUVEC [4]): 39.5%; viability at 2 µM (HUVEC [5]): 49.3%; viability at 1 µM (HUVEC [6]): 56.6%; viability at 0.5 µM (HUVEC [7]): 63.5%; Activity (HUVEC [8]): 8.64%; Activity (HUVEC [9]): 3.01%; Activity (HUVEC [10]): 2.69%; Activity (HUVEC [11]): 1.07%; Activity (HUVEC [12]): 25.61%; Activity (HUVEC [13]): 16.4%; Activity (HUVEC [14]): 14.01%; Activity (HUVEC [15]): 5.22%; Activity (HUVEC [16]): 26.23%; Activity (HUVEC [17]): 26.68%; Activity (HUVEC [18]): 30.26%; Activity (HUVEC [19]): 31.26%
C(=C\c1nnc(-c2ccc3c(c2)OCCO3)o1)/c1ccccc1 | 209 | < 4.30 | 
CO[C@@H]1[C@H](OC(=O)NC(=O)CCl)CC[C@]2(CO2)[C@H]1[C@@]1(C)O[C@@H]1CC=C(C)C [O-CHLOROACETYLCARBAMOYLFUMAGILLOL] |  | 5.71 | pIC50 [20]: 5.88
Cc1cccc(/C=C/c2nnc(-c3ccc4c(c3)OCCO4)o2)c1 | 201 | 4.39 | 
COc1cccc(/C=C/c2nnc(-c3ccc4c(c3)OCCO4)o2)c1 | 332 | < 4.30 | 
Cc1ccc(/C=C/c2nnc(-c3ccc4c(c3)OCCO4)o2)cc1 | 265 | 4.34 | 
O=[N+]([O-])c1ccc(/C=C/c2nnc(-c3ccc4c(c3)OCCO4)o2)cc1 | 299 | 4.49 | 
COc1ccc(/C=C/c2nnc(-c3ccc4c(c3)OCCO4)o2)cc1 | 312 | < 4.30 | 
Clc1ccc(/C=C/c2nnc(-c3ccc4c(c3)OCCO4)o2)cc1 | 312 | 5.10 | 
